We go through 19 molecules from patent publication US12679848B2, “Plasma kallikrein inhibitors” (Merck Sharp & Dohme LLC, priority 2020, dated 2026).

The target in one experiment is human factor XIa (Homo sapiens, UniProt P03951). As to the kind of experiment: Factor XIa Assay. Particulars: human factor XIa 0.04 nM, substrate GPR-AFC, 30 min pre-incubation, 25° C., pH 7.4; read-out: FXIa IC50. The class given is biochemical. As for the experimental part:
(§1) The effectiveness of a compound of the present invention as an inhibitor of Coagulation factor XIa can be determined using a relevant purified serine protease, and an appropriate synthetic substrate. The rate of hydrolysis of the chromogenic or fluorogenic substrate by the relevant serine protease was measured both in the absence and presence of compounds of the present invention. Assays were conducted at rt or at 37° C. […] A decrease in the rate of fluorescence change in the presence of inhibitor is indicative of enzyme inhibition. Such methods are known to one skilled in the art. The results of this assay are expressed as the half-maximal inhibitory concentrations (IC50), or the inhibitory constant, Ki.
Compounds were pre-incubated for 30 min at 25° C. with human (0.04 nM) factor XIa in 50 mM HEPES buffer with 150 mM sodium chloride, 5 mM calcium chloride, 0.1% PEG 8000, pH 7.4. factor XIa enzymatic activity was determined by addition of the substrate glycine-proline-arginine-7-amido-4-trifluoromethylcoumarin (GPR-AFC) and measurement of the fluorescence at 400/505 nm after a 60 min incubation at 25° C. The % inhibition for each data point was calculated from the data and analyzed using the log (inhibitor) vs. response four parameters equation to determine the half-maximal inhibitory concentrations (IC50). The IC50 were converted to equilibrium inhibitory constants (Ki) using the Cheng-Prusoff equation.

The target of a further experiment is T1, Human plasma kallikrein (Homo sapiens, UniProt P03952).
T1 construct: yields a heavy chain (371 amino acids) and a light chain (248 amino acids); The active site of plasma kallikrein is contained in the light chain; purchased Enzyme Research Laboratories
T1 sequence (P03952 391-638 limits assumed): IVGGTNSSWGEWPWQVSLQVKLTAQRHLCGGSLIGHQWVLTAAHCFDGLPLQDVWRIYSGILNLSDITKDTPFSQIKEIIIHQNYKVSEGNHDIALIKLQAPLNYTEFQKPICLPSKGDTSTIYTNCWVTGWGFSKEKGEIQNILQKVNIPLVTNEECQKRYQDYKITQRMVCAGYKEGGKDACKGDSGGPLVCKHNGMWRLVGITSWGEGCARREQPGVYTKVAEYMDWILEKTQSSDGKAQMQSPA
T1 sequence (P03952 20-390 partner limits assumed): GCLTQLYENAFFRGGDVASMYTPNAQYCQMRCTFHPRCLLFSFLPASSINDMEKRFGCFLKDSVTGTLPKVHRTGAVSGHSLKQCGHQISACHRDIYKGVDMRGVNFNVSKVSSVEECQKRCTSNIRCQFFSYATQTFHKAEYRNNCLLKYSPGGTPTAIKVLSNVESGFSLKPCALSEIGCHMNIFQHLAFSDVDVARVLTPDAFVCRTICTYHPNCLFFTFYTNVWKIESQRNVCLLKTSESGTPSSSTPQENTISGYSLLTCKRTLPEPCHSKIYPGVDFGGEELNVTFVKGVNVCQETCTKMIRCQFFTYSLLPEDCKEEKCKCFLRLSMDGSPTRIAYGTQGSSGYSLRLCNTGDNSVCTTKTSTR
As to the kind of experiment: Plasma Kallikrein Assay. The class given is biochemical. The following applies: purified Human plasma kallikrein 0.5 nM, substrate Acetyl-K-P-R-AFC, HEPES pH 7.4; read-out: PKal IC50. As for the experimental part:
as §1, with “plasma kallikrein” for “Coagulation factor XIa”
Plasma kallikrein determinations were made in 50 mM HEPES buffer at pH 7.4 containing 150 mM NaCl, 5 mM CaCl2), and 0.1% PEG 8000 (polyethylene glycol; Fisher Scientific). Determinations were made using purified Human plasma kallikrein at a final concentration of 0.5 nM (Enzyme Research Laboratories) and the synthetic substrate, Acetyl-K—P—R-AFC (Sigma #C6608) at a concentration of […].
Times required to achieve equilibration between enzyme and inhibitor were determined in control experiments. […] IC50 was determined by inflection point from a four parameter logistic curve fit. Ki was calculated using the Cheng Prusoff equation, Ki=IC50/[…](1+([S]/Km)).

SMILES strings stand for the structures. pIC50: −log10 of the molar value.

Sequence of human factor XIa (P03951 388-625 limits assumed): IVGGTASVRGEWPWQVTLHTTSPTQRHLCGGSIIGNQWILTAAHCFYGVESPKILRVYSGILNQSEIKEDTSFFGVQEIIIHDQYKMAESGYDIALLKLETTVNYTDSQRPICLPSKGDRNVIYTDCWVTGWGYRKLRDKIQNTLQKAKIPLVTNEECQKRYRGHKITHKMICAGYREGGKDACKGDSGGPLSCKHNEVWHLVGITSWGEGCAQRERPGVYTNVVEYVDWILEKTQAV
Sequence of human factor XIa (P03951 19-387 partner limits assumed): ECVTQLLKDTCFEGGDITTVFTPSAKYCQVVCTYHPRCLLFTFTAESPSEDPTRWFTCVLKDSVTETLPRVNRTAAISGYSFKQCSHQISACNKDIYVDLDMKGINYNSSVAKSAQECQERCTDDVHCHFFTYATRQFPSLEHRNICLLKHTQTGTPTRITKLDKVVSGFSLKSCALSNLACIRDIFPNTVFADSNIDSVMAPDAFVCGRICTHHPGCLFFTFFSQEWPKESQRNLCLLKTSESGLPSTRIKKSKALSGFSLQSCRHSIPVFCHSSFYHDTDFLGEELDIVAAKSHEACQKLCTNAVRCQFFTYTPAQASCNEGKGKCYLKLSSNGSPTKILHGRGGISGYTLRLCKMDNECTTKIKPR

As a reminder, the pIC50 is −log10 of the IC50, conventionally taken in molar units. Consider `CC[C@@H](n1ncc(C(=O)N2CCC[C@@]3(C2)OC(=O)Nc2ccc(Cl)c(F)c23)c1N)C(F)(F)F` (single isomer, unassigned) [Example 3], for which the pIC50 at human factor XIa is 6.98.
On the same count and under the same terms, for `CC[C@H](n1ncc(C(=O)N2CCC[C@@]3(C2)OC(=O)Nc2ccc(Cl)c(F)c23)c1N)C(F)(F)F` (single isomer, unassigned) [Example 4] the value was 8.05.
Regarding `Nc1c(C(=O)N2CCC[C@@]3(C2)OC(=O)Nc2ccc(Cl)c(F)c23)cnn1C1(C(F)(F)F)CC[C@@H]2C[C@@H]21` (single isomer, unassigned) [Example 56, (R)-1'-(5-Amino-1-((1S,2S or R,5R)-2-(trifluoromethyl)bicyclo[3.1.0]hexan-2-y1)-1H-pyrazole-4-carbonyl)-6-chloro-5-fluorospiro[benzo[d][1,3]oxazine-4,3'-piperidin]-2(1H)-one], the results for the pIC50 on human factor XIa and at Human plasma kallikrein were 6.03 and 8.54, respectively.
On to `CCC(C1CCOCC1)n1ncc(C(=O)N2CCC[C@@]3(C2)OC(=O)Nc2ccc(Cl)c(F)c23)c1N` (single isomer, unassigned) [Example 112, (R)-1'-(5-Amino-1-((R or S)-1-(tetrahydro-2H-pyran-4-yl)propyl)-1H-pyrazole-4-carbonyl)-6-chloro-5-fluorospiro[benzo[d][1,3]oxazine-4,3'-piperidin]-2(1H)-one], for which the pIC50 is 7.21 on human factor XIa and 8.66 at Human plasma kallikrein.
With `CCC(C1CCOCC1)n1ncc(C(=O)N2CCC[C@@]3(C2)OC(=O)Nc2ccc(Cl)c(F)c23)c1N` (single isomer, unassigned) [Example 113, (R)-1'-(5-Amino-1-((S or R)-1-(tetrahydro-2H-pyran-4-yl)propyl)-1H-pyrazole-4-carbonyl)-6-chloro-5-fluorospiro[benzo[d][1,3]oxazine-4,3'-piperidin]-2(1H)-one], the negative-log IC50 (pIC50) at human factor XIa was 8.70; at Human plasma kallikrein, 9.22.
For `Nc1c(C(=O)N2CCC[C@@]3(C2)OC(=O)Nc2ccc(Cl)c(F)c23)cnn1C(C(F)(F)F)C1(F)CC1` (single isomer, unassigned) [Example 114, (R)-1'-(5-Amino-1-((R or S)-2,2,2-trifluoro-1-(1-fluorocyclopropyl)ethyl)-1H-pyrazole-4-carbonyl)-6-chloro-5-fluorospiro[benzo[d][1,3]oxazine-4,3'-piperidin]-2(1H)-one], the values for the pIC50 at human factor XIa and on Human plasma kallikrein were 6.99 and 8.55, respectively.
In the same order, the values of `Nc1c(C(=O)N2CCC[C@@]3(C2)OC(=O)Nc2ccc(Cl)c(F)c23)cnn1C(C(F)(F)F)C1(F)CC1` (single isomer, unassigned) [Example 115, (R)-1'-(5-Amino-1-((S or R)-2,2,2-trifluoro-1-(1-fluorocyclopropyl)ethyl)-1H-pyrazole-4-carbonyl)-6-chloro-5-fluorospiro[benzo[d][1,3]oxazine-4,3'-piperidin]-2(1H)-one] are 7.38 and 9.22.
Regarding `CCC(c1ccccc1)n1ncc(C(=O)N2CCC[C@@]3(C2)OC(=O)Nc2ccc(Cl)c(F)c23)c1N` (single isomer, unassigned) [Example 116, (R)-1'-(5-Amino-1-((S or R)-1-phenylpropyl)-1H-pyrazole-4-carbonyl)-6-chloro-5-fluorospiro[benzo[d][1,3]oxazine-4,3'-piperidin]-2(1H)-one], the pIC50 at human factor XIa was 8.40; at Human plasma kallikrein, 9.15.
In the same order, the values of `CCC(c1ccccc1)n1ncc(C(=O)N2CCC[C@@]3(C2)OC(=O)Nc2ccc(Cl)c(F)c23)c1N` (single isomer, unassigned) [Example 117, (R)-1'-(5-Amino-1-((R or S)-1-phenylpropyl)-1H-pyrazole-4-carbonyl)-6-chloro-5-fluorospiro[benzo[d][1,3]oxazine-4,3'-piperidin]-2(1H)-one] are 7.52 and 9.05.
In the case of `CC1(n2ncc(C(=O)N3CCC[C@@]4(C3)OC(=O)Nc3ccc(Cl)c(F)c34)c2N)CCS(=O)(=O)C1` (single isomer, unassigned) [Example 118, (R)-1'-(5-Amino-1-((R or S)-3-methyl-1,1-dioxidotetrahydrothiophen-3-y1)-1H-pyrazole-4-carbonyl)-6-chloro-5-fluorospiro[benzo[d][1,3]oxazine-4,3'-piperidin]-2(1H)-one], the negative-log IC50 (pIC50) at human factor XIa was 6.00; at Human plasma kallikrein, 7.62.
Take `CC1(n2ncc(C(=O)N3CCC[C@@]4(C3)OC(=O)Nc3ccc(Cl)c(F)c34)c2N)CCS(=O)(=O)C1` (single isomer, unassigned) [Example 119]: the negative-log IC50 (pIC50) at human factor XIa was 5.84; on Human plasma kallikrein, 7.68.
On the same counts, the results for `CC(n1ncc(C(=O)N2CCC[C@@]3(C2)OC(=O)Nc2ccc(Cl)c(F)c23)c1N)C(F)(F)F` (single isomer, unassigned) [Example 120, (R)-1'-(5-Amino-1-((R or S)-1,1,1-trifluoropropan-2-y1)-1H-pyrazole-4-carbonyl)-6-chloro-5-fluorospiro[benzo[d][1,3]oxazine-4,3'-piperidin]-2(1H)-one] are 6.66 and 8.37.
On the same counts, the results for `CC(n1ncc(C(=O)N2CCC[C@@]3(C2)OC(=O)Nc2ccc(Cl)c(F)c23)c1N)C(F)(F)F` (single isomer, unassigned) [Example 121, (R)-1'-(5-Amino-1-((S or R)-1,1,1-trifluoropropan-2-y1)-1H-pyrazole-4-carbonyl)-6-chloro-5-fluorospiro[benzo[d][1,3]oxazine-4,3'-piperidin]-2(1H)-one] are 6.23 and 8.31.
In the same order, the values of `Nc1c(C(=O)N2CCC[C@@]3(C2)OC(=O)Nc2ccc(Cl)c(F)c23)cnn1C(c1ccccc1)C(F)(F)F` (single isomer, unassigned) [Example 122, (R)-1'-(5-Amino-1-((R or S)-2,2,2-trifluoro-1-phenylethyl)-1H-pyrazole-4-carbonyl)-6-chloro-5-fluorospiro[benzo[d][1,3]oxazine-4,3'-piperidin]-2(1H)-one] are 7.02 and 9.00.
In the case of `Nc1c(C(=O)N2CCC[C@@]3(C2)OC(=O)Nc2ccc(Cl)c(F)c23)cnn1C(c1ccccc1)C(F)(F)F` (single isomer, unassigned) [Example 123], the negative-log IC50 (pIC50) on human factor XIa is 7.13; on Human plasma kallikrein it was 9.05.
For `Nc1c(C(=O)N2CCC[C@@]3(C2)OC(=O)Nc2ccc(Cl)c(F)c23)cnn1C(C1CC1)C(F)(F)F` (single isomer, unassigned) [Example 124, (R)-1'-(5-Amino-1-((R or S)-1-cyclopropyl-2,2,2-trifluoroethyl)-1H-pyrazole-4-carbonyl)-6-chloro-5-fluorospiro[benzo[d][1,3]oxazine-4,3'-piperidin]-2(1H)-one], the pIC50 at human factor XIa is 7.12; at Human plasma kallikrein it was 8.85.
Regarding `Nc1c(C(=O)N2CCC[C@@]3(C2)OC(=O)Nc2ccc(Cl)c(F)c23)cnn1Cc1ccccc1` [Example 8, (R)-1'-(5-Amino-1-benzyl-1H-pyrazole-4-carbonyl)-6-chloro-5-fluorospiro[benzo[d][1,3]oxazine-4,3'-piperidin]-2(1H)-one], the pIC50 on human factor XIa is 7.17.
With `Nc1c(C(=O)N2CCC[C@@]3(C2)OC(=O)Nc2ccc(Cl)c(F)c23)cnn1-c1ccccc1` [Example 57, (R)-1'-(5-Amino-1-phenyl-1H-pyrazole-4-carbonyl)-6-chloro-5-fluorospiro[benzo[d][1,3]oxazine-4,3'-piperidin]-2(1H)-one], the pIC50 on human factor XIa was 5.38.
The same measure, in the same setting: for `Nc1c(C(=O)N2CCC[C@@]3(C2)OC(=O)Nc2ccc(Cl)c(F)c23)cnn1-c1ccccc1OC(F)(F)F` [Example 72, (R)-1'-(5-Amino-1-(2-(trifluoromethoxy)phenyl)-1H-pyrazole-4-carbonyl)-6-chloro-5-fluorospiro[benzo[d][1,3]oxazine-4,3'-piperidin]-2(1H)-one] the value was 6.58.
